According to ChEMBL document CHEMBL5113502, “Accommodation of ring C expanded deoxyvasicinone in the HDAC inhibitory pharmacophore culminates into a tractable anti-lung cancer agent and pH-responsive nanocarrier” (Eur J Med Chem, 2022):

Tests used:
Format in all cases: functional, cell-based
A549 = assay: Cytotoxicity against human A549 cells assessed as cell viability after 48 hrs by MTT assay; settings: A549, 48 h
HOP-62 = assay: Cytotoxicity against human HOP-62 cells assessed as cell viability after 48 hrs by MTT assay; settings: HOP-62, 48 h
NCI-H727 = assay: Cytotoxicity against human NCI-H727 cells assessed as cell viability after 48 hrs by MTT assay; settings: NCI-H727, 48 h

Row | Structure (SMILES) | IC50 (A549) | IC50 (HOP-62) | IC50 (NCI-H727)
1 | O=C(NO)c1ccc(C(=O)Nc2ccc3nc4n(c(=O)c3c2)CCCCC4)cc1 | 9 µM | – | –
2 | O=C(CCCCCCCCC(=O)Nc1ccc2nc3n(c(=O)c2c1)CCCCC3)NO | 11 µM | – | –
3 | O=C(CCCCCCC(=O)Nc1ccc2nc3n(c(=O)c2c1)CCCCCC3)NO | 22 µM | – | –
4 | O=C(NO)c1ccc(CNc2ccc3nc4n(c(=O)c3c2)CCCCC4)cc1 | 10 µM | – | –
5 | O=C(CCCCCCCC(=O)Nc1ccc2nc3n(c(=O)c2c1)CCCCC3)NO | 12 µM | – | –
6 | O=C(CCCCCCC(=O)Nc1ccc2nc3n(c(=O)c2c1)CCCC3)NO | 16 µM | – | –
7 | O=c1c2ccccc2nc2n1CCCCC2 | 6 µM | – | –
8 | O=C(CCCCCCC(=O)Nc1ccc2nc3n(c(=O)c2c1)CCCCC3)NO | 14 µM | – | –
9 | O=C(CCCCCC(=O)Nc1ccc2nc3n(c(=O)c2c1)CCCCC3)NO | 11 µM | – | –
10 | O=C(/C=C/c1ccc(CNc2ccc3nc4n(c(=O)c3c2)CCCCCC4)cc1)NO | 1.89 µM | 1.95 µM | 1.78 µM
11 | O=C(/C=C/c1cccc(S(=O)(=O)Nc2ccc3nc4n(c(=O)c3c2)CCCCC4)c1)NO | 3 µM | – | –
12 | O=C(CCCCCCC(=O)Nc1ccc2nc3n(c(=O)c2c1)CCC3)NO | 17 µM | – | –
13 | O=C(/C=C/c1ccc(CNc2ccc3nc4n(c(=O)c3c2)CCC4)cc1)NO | 1.21 µM | 1.78 µM | 1.11 µM
14 | O=C(/C=C/c1ccc(CNc2ccc3nc4n(c(=O)c3c2)CCCC4)cc1)NO | 1.56 µM | 1.71 µM | 1.34 µM
